Data reported in ChEMBL document CHEMBL2034905, “Synthesis of benzimidazolyl-1,3,4-oxadiazol-2ylthio-N-phenyl (benzothiazolyl) acetamides as antibacterial, antifungal and antituberculosis agents” (Eur J Med Chem, 2012).
Converted amounts (≈) assume the structure as drawn.

Columns and labels:
Shigella flexneri [1] = assay: Antibacterial activity against Shigella flexneri MTCC 1457 at 100 ug/disc by paper disc diffusion technique; type: functional; settings: read-out: IZ
[2] = test system: Mycobacterium tuberculosis; assay: Antituberculosis activity against Mycobacterium tuberculosis H37Rv by BACTEC MGIT method; type: functional
Proteus vulgaris [3] = assay: Antibacterial activity against Proteus vulgaris MTCC 1771 at 100 ug/disc by paper disc diffusion technique; type: functional; settings: read-out: IZ
Proteus vulgaris [4] = assay: Antibacterial activity against Proteus vulgaris MTCC 1771 by agar streak dilution method; type: functional
Staphylococcus aureus [5] = assay: Antibacterial activity against Staphylococcus aureus MTCC 96 at 100 ug/disc by paper disc diffusion technique; type: functional; settings: read-out: IZ
Candida albicans [6] = assay: Antifungal activity against Candida albicans MTCC 183 by agar streak dilution method; type: functional
Klebsiella pneumoniae [7] = assay: Antibacterial activity against Klebsiella pneumoniae MTCC 109 at 100 ug/disc by paper disc diffusion technique; type: functional; settings: read-out: IZ
Bacillus cereus [8] = assay: Antibacterial activity against Bacillus cereus MTCC 430 by agar streak dilution method; type: functional
Bacillus cereus [9] = assay: Antibacterial activity against Bacillus cereus MTCC 430 at 100 ug/disc by paper disc diffusion technique; type: functional; settings: read-out: IZ
Aspergillus niger [10] = assay: Antifungal activity against Aspergillus niger MTCC 282 at 100 ug/disc by paper disc diffusion technique; type: functional; settings: read-out: IZ
Salmonella typhi [11] = assay: Antibacterial activity against Salmonella typhi MTCC 733 by agar streak dilution method; type: functional, Salmonella enterica subsp. enterica serovar Typhi; settings: Salmonella enterica
Escherichia coli [12] = assay: Antibacterial activity against Escherichia coli MTCC 739 at 100 ug/disc by paper disc diffusion technique; type: functional; settings: read-out: IZ
Staphylococcus aureus [13] = assay: Antibacterial activity against Staphylococcus aureus MTCC 96 by agar streak dilution method; type: functional
[14] = test system: Mycobacterium tuberculosis; assay: Antituberculosis activity against Mycobacterium tuberculosis H37Rv at 6.25 ug/ml by Lowenstein-Jensen method; type: functional
Klebsiella pneumoniae [15] = assay: Antibacterial activity against Klebsiella pneumoniae MTCC 109 by agar streak dilution method; type: functional
Aspergillus niger [16] = assay: Antifungal activity against Aspergillus niger MTCC 282 by agar streak dilution method; type: functional
Aspergillus fumigatus [17] = assay: Antifungal activity against Aspergillus fumigatus MTCC 343 by agar streak dilution method; type: functional
Shigella flexneri [18] = assay: Antibacterial activity against Shigella flexneri MTCC 1457 by agar streak dilution method; type: functional
[19] = test system: Mycobacterium tuberculosis; assay: Antituberculosis activity against Mycobacterium tuberculosis H37Rv by Lowenstein-Jensen method; type: functional
Aspergillus clavatus [20] = assay: Antifungal activity against Aspergillus clavatus MTCC 1323 at 100 ug/disc by paper disc diffusion technique; type: functional; settings: read-out: IZ
Salmonella typhi [21] = assay: Antibacterial activity against Salmonella typhi MTCC 733 at 100 ug/disc by paper disc diffusion technique; type: functional, Salmonella enterica subsp. enterica serovar Typhi; settings: Salmonella enterica, read-out: IZ
Candida albicans [22] = assay: Antifungal activity against Candida albicans MTCC 183 at 100 ug/disc by paper disc diffusion technique; type: functional; settings: read-out: IZ
Aspergillus fumigatus [23] = assay: Antifungal activity against Aspergillus fumigatus MTCC 343 at 100 ug/disc by paper disc diffusion technique; type: functional; settings: read-out: IZ
Aspergillus clavatus [24] = assay: Antifungal activity against Aspergillus clavatus MTCC 1323 by agar streak dilution method; type: functional
Pseudomonas aeruginosa [25] = assay: Antibacterial activity against Pseudomonas aeruginosa MTCC 741 at 100 ug/disc by paper disc diffusion technique; type: functional; settings: read-out: IZ
Pseudomonas aeruginosa [26] = assay: Antibacterial activity against Pseudomonas aeruginosa MTCC 741 by agar streak dilution method; type: functional
Escherichia coli [27] = assay: Antibacterial activity against Escherichia coli MTCC 739 by agar streak dilution method; type: functional

Structure (SMILES)	zone of inhibition at 100 µg/disc (Shigella flexneri [1])	MIC [2]	zone of inhibition at 100 µg/disc (Proteus vulgaris [3])	MIC (Proteus vulgaris [4])	zone of inhibition at 100 µg/disc (Staphylococcus aureus [5])	MIC (Candida albicans [6])	zone of inhibition at 100 µg/disc (Klebsiella pneumoniae [7])	MIC (Bacillus cereus [8])	zone of inhibition at 100 µg/disc (Bacillus cereus [9])	zone of inhibition at 100 µg/disc (Aspergillus niger [10])	MIC (Salmonella typhi [11])	zone of inhibition at 100 µg/disc (Escherichia coli [12])	MIC (Staphylococcus aureus [13])	MIC (Klebsiella pneumoniae [15])	MIC (Aspergillus niger [16])	MIC (Aspergillus fumigatus [17])	MIC (Shigella flexneri [18])	zone of inhibition at 100 µg/disc (Aspergillus clavatus [20])	zone of inhibition at 100 µg/disc (Salmonella typhi [21])	zone of inhibition at 100 µg/disc (Candida albicans [22])	also measured
O=C(CSc1nnc(Cn2cnc3ccccc32)o1)Nc1ccc([N+](=O)[O-])cc1	19 mm	> 6.25 µg/mL	14 mm	100 µg/mL (≈ 244 µM)	20 mm	100 µg/mL (≈ 244 µM)	20 mm	100 µg/mL (≈ 244 µM)	13 mm	18 mm	100 µg/mL (≈ 244 µM)	12 mm	12.5 µg/mL (≈ 30.5 µM)	100 µg/mL (≈ 244 µM)	50 µg/mL (≈ 122 µM)	100 µg/mL (≈ 244 µM)	100 µg/mL (≈ 244 µM)	24 mm	13 mm	15 mm	inhibition at 6.25 µg/mL [14]: 94%; MIC [19]: 100 µg/mL (≈ 244 µM); zone of inhibition at 100 µg/disc (Aspergillus fumigatus [23]): 18 mm; MIC (Aspergillus clavatus [24]): 50 µg/mL (≈ 122 µM); zone of inhibition at 100 µg/disc (Pseudomonas aeruginosa [25]): 20 mm; MIC (Pseudomonas aeruginosa [26]): 50 µg/mL (≈ 122 µM); MIC (Escherichia coli [27]): 100 µg/mL (≈ 244 µM)
N#Cc1ccc(NC(=O)CSc2nnc(Cn3cnc4ccccc43)o2)cc1	17 mm	> 6.25 µg/mL	19 mm	50 µg/mL (≈ 128 µM)	18 mm	100 µg/mL (≈ 256 µM)	24 mm	50 µg/mL (≈ 128 µM)	19 mm	< 10 mm	50 µg/mL (≈ 128 µM)	19 mm	25 µg/mL (≈ 64 µM)	25 µg/mL (≈ 64 µM)	100 µg/mL (≈ 256 µM)	100 µg/mL (≈ 256 µM)	100 µg/mL (≈ 256 µM)	13 mm	20 mm	11 mm	inhibition at 6.25 µg/mL [14]: 96%; MIC [19]: 62.5 µg/mL (≈ 160 µM); zone of inhibition at 100 µg/disc (Aspergillus fumigatus [23]): 14 mm; MIC (Aspergillus clavatus [24]): 100 µg/mL (≈ 256 µM); zone of inhibition at 100 µg/disc (Pseudomonas aeruginosa [25]): 21 mm; MIC (Pseudomonas aeruginosa [26]): 50 µg/mL (≈ 128 µM); MIC (Escherichia coli [27]): 50 µg/mL (≈ 128 µM)
CCOc1ccc(NC(=O)CSc2nnc(Cn3cnc4ccccc43)o2)cc1	22 mm	> 6.25 µg/mL	25 mm	12.5 µg/mL (≈ 30.5 µM)	14 mm	25 µg/mL (≈ 61.1 µM)	< 10 mm	50 µg/mL (≈ 122 µM)	18 mm	17 mm	50 µg/mL (≈ 122 µM)	23 mm	50 µg/mL (≈ 122 µM)	100 µg/mL (≈ 244 µM)	50 µg/mL (≈ 122 µM)	100 µg/mL (≈ 244 µM)	25 µg/mL (≈ 61.1 µM)	16 mm	21 mm	24 mm	inhibition at 6.25 µg/mL [14]: 98%; MIC [19]: 50 µg/mL (≈ 122 µM); zone of inhibition at 100 µg/disc (Aspergillus fumigatus [23]): 11 mm; MIC (Aspergillus clavatus [24]): 100 µg/mL (≈ 244 µM); zone of inhibition at 100 µg/disc (Pseudomonas aeruginosa [25]): 16 mm; MIC (Pseudomonas aeruginosa [26]): 100 µg/mL (≈ 244 µM); MIC (Escherichia coli [27]): 25 µg/mL (≈ 61.1 µM)
O=C(O)c1cn(C2CC2)c2cc(N3CCNCC3)c(F)cc2c1=O [CIPROFLOXACIN]	32 mm		31 mm	0.39 µg/mL (≈ 1.18 µM)	30 mm		33 mm	0.39 µg/mL (≈ 1.18 µM)	31 mm		0.39 µg/mL (≈ 1.18 µM)	32 mm	1.56 µg/mL (≈ 4.71 µM)	0.78 µg/mL (≈ 2.35 µM)			1.56 µg/mL (≈ 4.71 µM)		30 mm		zone of inhibition at 100 µg/disc (Pseudomonas aeruginosa [25]): 33 mm; MIC (Pseudomonas aeruginosa [26]): 0.78 µg/mL (≈ 2.35 µM)
NNC(=O)c1ccncc1 [ISONIAZID]		0.2 µg/mL (≈ 1.46 µM)																			
CC(=O)N1CCN(c2ccc(OCC3COC(Cn4ccnc4)(c4ccc(Cl)cc4Cl)O3)cc2)CC1 (stereo not given) [KETOCONAZOLE]						1.56 µg/mL (≈ 2.94 µM)				30 mm					1.56 µg/mL (≈ 2.94 µM)	0.78 µg/mL (≈ 1.47 µM)		31 mm		33 mm	zone of inhibition at 100 µg/disc (Aspergillus fumigatus [23]): 29 mm; MIC (Aspergillus clavatus [24]): 0.78 µg/mL (≈ 1.47 µM)
